Usually Kd stands for the equilibrium constant for the complex coming apart. A lower Kd goes with higher affinity.

From US6875736B2, “Methods for identifying RNA binding compounds” (priority 1999, dated 2005) come the findings set out here.

Data set [1] deals with TAR RNA. Kind of data set: On-bead screening of encoded tripeptide library with disperse red-labeled TAR RNA. It counts as binding, HIV-1. To be noted: for Color: bead colour with 250 nM disperse red-labeled TAR RNA, 4° C., red after 2 days, pink-red after 3 further days; for Frequency: number of stained beads decoded with this sequence, three copies of library, bead peptides N-acetylated. On the procedure: Screening the library with TAR RNA. Three copies of the tripeptide library on encoded beads, which contain more than 95% of the members of the library, were placed in an eppendoff tube and washed with water (500 μL×5) and TK buffer (50 mM Tris-HCl (pH 7.4), 20 mM KCl, 0.1% Triton X-100) (500 μL×4), which is commonly used for the formation of Tat-TAR complexes in vitro (Churcher et al. (1993) J. Mol. Biol. 230, 90-110). After filtration, the beads were suspended in TK buffer (400 μL) and bovine serum albumin (0.1 mg/mL) at room temperature for 1 hour to reduce nonspecific binding. The aqueous phase was removed, and the beads were washed with TK buffer (500 μL×3). After filtration, the beads were resuspended in […] TK buffer, 2.5 μM of bulge mutant TAR RNA was added, and the suspension was stirred at 4° C. for 1 day. The buffer was removed, the beads were resuspended in […] TK buffer, and 250 nM disperse red-dye-labeled-TAR RNA and 2.5 μM bulge mutant TAR RNA were added. After 2 days of stirring at 4° C., the buffer was removed, and the remaining beads were washed with water (500 μL×3). Two red beads were picked under a microscope and placed in separate capillary tubes. The remaining beads were further incubated with a mixture of disperse-red-dye-labeled TAR RNA and bulge mutant TAR RNA for 3 days, as described above. During the second screening, eight beads turned red. These beads were picked and placed in capillary tubes.
Decoding the structures of RNA-binding ligands. A disperse-red dye labeled encoded bead was placed in a 25 μL micro capillary tube containing dimethylformamide (DMF) (2 μL) and the bead was washed with DMF(5 μL×4). After draining the solvent, the bead was resuspended in 2 μL DMF and the micro capillary tube was centrifuged for 4 min and then flame sealed. Each capillary tube containing a bead was then irradiated with UV radiation at 350 nm for 4 hours and spun for 5 minutes in a centrifuge. The capillary tube was opened and the cleaved tag alcohols were silylated with N, O-bis(trimethylsilyl)acetamide in a micro syringe. The N, O-bis(trimethylsilyl)acetamide derivatives (1 μL) were analyzed using electron capture gas chromatography (“ECGC”). A Hewlett Packard 6890 series Gas Chromatography system, equipped with a micro electron capture detector (μ-ECD) and a HP Chemstation operating system, was used for all decoding analyses. The GC was operated in splitless inlet mode, using helium as the carrier gas. A 35 m×0.2 mm i.d.×0.33 μm film thickness HP-Ultra 1 column was used with a temperature program of 1 min isothermal at 200° C. followed by heating at 10° C./min to 320° C. The μ-ECD make up gas was nitrogen.
On-bead selection of structure-specific TAR RNA binding compounds. To identify tripeptides that bind to TAR RNA, the dye disperse red was covalently attached to TAR RNA, and the labeled RNA was incubated in a suspension of library beads made using the split synthesis method. […] Nevertheless, the dye-TAR RNA conjugate was able to enter the beads and bind in a structure-dependent manner to tripeptides attached thereto. The red color of the dye was clearly evenly distributed throughout the translucent bead. Broken beads were not selected. Peptides specific for portions of TAR RNA other than the bulge region were blocked using a relatively large concentration of an unlabeled bulge mutant TAR RNA. A small amount of detergent and low RNA concentrations (250 nM) also minimized non-specific binding.
Ligand Sequence Analysis. Upon incubating the dye-TAR RNA conjugate with the library, only two beads were stained red. These two beads were separated from the rest of the library, which was allowed to incubate with the dye-TAR RNA conjugate for 3 days at 4° C. […] At the end of the second incubation, only eight additional beads were stained pink-red.

Data set [2] has as its system wild-type TAR RNA. Kind of data set: Solid-phase RNA-peptide binding assay (dissociation constant). More on the design: species or system HIV-1. The settings on record: for KREL: KD of a basic Tat peptide / KD of inhibitor; for dissociation constant relative to tripeptide ID#1 (times higher): diastereomers of tripeptide ID#1; for Kd: wild-type TAR RNA, TK buffer, overnight at 4° C., four independent experiments. The source says: Solid-phase RNA-peptide binding assays. TAR RNA binding compounds found and decoded as described above (shown in Table 1) were synthesized on TENTAGEL S-NH2 (4.6 μmole). All fluorenylmethoxycarbonyl (Fmoc)-protected amino acids were purchased from Bachem (Torrance, Calif.). 1-hydroxybenzotriazole (HOBT) and diisopropylcarbodiimide (DIPCDI) were obtained from Aldrich Chemical Co., Milwaukee, Wis. Piperidine and trifluoroacetic acid were purchased from Applied Biosystems Division, Perkin-Elmer. All ligands were synthesized manually according to standard solid-phase peptide synthesis protocols. Coupling efficiencies of residues at each step were monitored using a standard Kaiser test. Deprotection of tripeptides was carried out in 10% water in trifluoroacetic acid (1 mL) for 16 hours at room temperature. After filtration of solvents, the resin was washed with water (1 mL×4), DMF (1 mL×4), and dichloromethane (1 mL×4), and dried under reduced pressure. Ten beads with attached tripeptides were placed in an Eppendorff tube and washed with TK buffer (200 μL×3). The beads were suspended in TK buffer (300 μL) and incubated with TAR RNA (1.95 μM) overnight at 4° C. The suspension was spun in a centrifuge, and the supernatant containing unbound RNA was transferred to a cuvette for optical density measurements at 260 nm using a Shimadzu UV-1601 spectrometer. Equilibrium concentrations of RNA were determined from these measurements. Given that the initial concentrations of ligand and RNA are known, and assuming simple bimolecular receptor/substrate binding, a dissociation constant (KD) was calculated from known equations in order to determine which test compounds bind TAR RNA most tightly.
To verify that this assay reflected RNA-tripeptide interactions and to determine the affinity of these tripeptides for TAR RNA, the eight tripeptides were resynthesized and their dissociation constants with wild-type TAR RNA were measured. […] To compare the RNA binding affinities of 8 ligands to natural Tat peptide, a Tat-derived peptide (Gly48 to Arg57) containing the RNA-binding region of Tat protein was synthesized (FIG. 2(b)) (SEQ. ID. NO. 2). The dissociation constant of the Tat peptide-RNA complex was determined under the same conditions used for the tripeptide-RNA complexes. […] A relative dissociation constant (KREL) can be calculated as the ratios of the Tat peptide to tripeptide dissociation constants (KD) for TAR RNA. Tripeptide ID #1 binds TAR RNA with affinities higher than the wild-type Tat peptide.

The subject of data set [3] is Tat trans-activation (HIV-1 LTR promoter, CAT reporter gene). Description: Inhibition of Tat trans-activation in HL3T1 cells (CAT reporter). Type of data set: cell-based. On the procedure:
(§1) Inhibition of Tat trans-activation in cellular assays. […] Cells were grown in 2 mL of Dulbecco's modified Eagle medium (DMEM) supplemented with 10% fetal calf serum in 60 mm dishes at 37° C. in 5% CO2 in a tissue culture incubator. Cells were refreshed by 2 mL DMEM before transfection. Transfection was started by dropwise addition of 250 μL 2×Hepes-buffered saline and maintenance at room temperature for 10 minutes. Approximately 10 μg of plasmids (pSV2Tat and pAL) and increasing amounts of tripeptide 1 were transfected in the presence of CaCl2 (final concentration 125 mM) and the cells were incubated for 4 hours at 37° C. in a tissue culture incubator. The medium was then discarded and the cells were subjected to glycerol shock (1.5 mL of 15%) for 45 seconds. Finally, the cells were washed twice with 5 mL phosphate-buffered saline (PBS) and were grown in 3 mL DMEM. DMEM was changed at 24 hours post-transfection, and cells were harvested 48 hours post-transfection. Cells were lysed in reporter lysis buffer (Promega). Aliquots were used for CAT and luciferase assays. Both activities were normalized to protein concentration determined by using a modified Bradford assay (Bio-Rad).
(§2) Inhibition of Tat trans-activation in vivo. […] Luciferase reporter gene provides an internal control.

The subject of data set [4] is HL3T1 cells.
From the text: Inhibition of Tat trans-activation in vivo. To test whether the tripeptide 1-TAR RNA interaction could be used to control HIV-1 gene expression in vivo, HL3T 1 cells, a HeLa cell line derivative containing an integrated HIV-1 LTR promoter and CAT reporter gene (Felber & Pavlakis (1988) Science 239, 184-187), were used. […] Plasmids pSV2Tat and pAL express the first exon of Tat protein and luciferase enzyme, respectively. Luciferase reporter gene provides an internal control.
The test system of data set [5] is TAR RNA. Description: NMR (TOCSY/NOESY) of TAR RNA with ligand. Type of data set: binding, HIV-1. To be noted: 1 to 2 mM RNA and ligand, 5 mM phosphate buffer pH 5.5. How it is done: NMR Spectroscopy. NMR experiments were performed to determine the interaction sites of tripeptide ID#1 on TAR RNA. NMR spectra of free TAR RNA and TAR RNA complexed with tripeptide ID#1 were recorded. Due to the spectral overlap, it was impossible to follow all but a few well-isolated resonances by conventional 1-dimensional experiments. Therefore, two-dimensional NOESY and TOCSY experiments were performed. All spectra were recorded on a Bruker AMX-500 NMR spectrometer operating at 500 MHz for ^1H equipped with triple resonance probe and H-broadband inverse detection probes. The 1D and 2D ^1H spectra were recorded at approximately 1 to 2 mM RNA and tripeptide ID#1 concentrations in 5 mM phosphate buffer (pH 5.5), with up to 100 mM NaCl. All other conditions were the same as described earlier by Aboul-ela et al. ((1995) J. Mol. Biol. 253, 313-332.). Complete TAR RNA assignments were obtained. Increasing amounts of tripeptide 1 were added to TAR RNA and the spectral changes were monitored by two-dimensional TOCSY experiments. The TOCSY spectrum contains a region where only pyrimidine H5-H6 resonances are found; this region has a well-dispersed 2D spectrum. Resonances in the free RNA and RNA-ligand complexes were assigned by NOESY experiments. […]

The subject of data set [6] is luciferase gene. Description: Luciferase internal control in HL3T1 cells (pAL plasmid). Type of data set: cell-based. The settings on record: increasing amounts of ligand. On the procedure:
as §1, §2

The subject of data set [7] is dye-labeled TAR RNA. Description: Equilibrium interaction of dye-labeled TAR RNA with bead-tethered tripeptide. It counts as binding, HIV-1. To be noted: dye-labeled TAR RNA 1 μM, TK buffer, 4° C., 5 hours. How it is done: Second, the equilibrium interaction between dye-labeled TAR RNA and a tripeptide tethered to beads was examined by incubating a suspension of beads containing tripeptide ID#1 in TK buffer (400 μL) with dye-labeled TAR RNA (1 μM) at 4° C. for 5 hours. Beads were stained red upon TAR RNA binding. The interaction between dye-labeled TAR RNA and tripeptide ID #1 is reversible and can be abolished by the addition of unlabeled TAR RNA or tripeptide ID#1 as a competitor. Finally, screening the library with dye-labeled TAR RNA was carried out in the presence of excess unlabeled bulge mutant TAR RNA, inhibiting non-specific TAR RNA-peptide interactions.

Non-standard residues stand in square brackets, D forms with d. Residues, ends and D or L forms follow the SMILES beside them.

In the case of H2N-(L)Lys-(D)Lys-(D)Asn-OH [ID #2], in data set [1], the Color result is given as “Pink” and the Frequency was 1. Besides, in data set [2], the KREL is listed as 0.17, the “dissociation constant relative to tripeptide ID#1 (times higher)” value is “approximately 7 times” and the Kd stood at 4170 nM.

Turning to `N=C(N)NCCC[C@H](N)C(N)=O` [L-argininamide, reference compound], the “inhibitory effect on Tat transactivation” value in data set [3] (control ligands) was “no inhibitory effect”.

On to H2N-(D)Thr-(D)Lys-(L)Phe-OH [ID #8], for which, in data set [1], the Color entry is given as “Pink” and the Frequency is on record as 1. Also, in data set [2], the KREL is 0.35 and the Kd is 2090 nM.

Regarding `NCCCC[C@H](N)C(=O)N[C@H](CCCCN)C(=O)N[C@@H](CC(N)=O)C(=O)O` [ID #1, H2N-(L)Lys-(D)Lys-(L)Asn-OH] (H-Lys-[dK]-Asn-OH), the “Cell viability / toxicity to the cells” value in data set [4] is recorded as “not toxic”. For the same compound, the “shift of TAR RNA resonances in TOCSY spectra” value in data set [5] is “Resonances in the bulge region, U23 and C24, were shifted”. Also, the “Transcription of the luciferase gene” value in data set [6] was “not affected”. The Tat trans-activation inhibited entry in data set [3] (700 nM, CAT activity) is given as “more than 90%”. For the same compound, in data set [1], the Color result is reported as “Red” and the Frequency amounted to 2. In data set [2], the KREL is recorded as 1.73 and the affinity, expressed as Kd, was 420 ± 44 nM. In data set [2] (listed as tripeptide ID#1), this compound had a dissociation constant (Kd) of 441 nM. Further, the “bead staining upon dye-labeled TAR RNA binding” value in data set [7] is reported as “stained red”.

Take H2N-(L)Arg-(D)Lys-(L)Asn-OH [ID #4]: in data set [1], the Color entry is “Pink” and the Frequency turned out to be 1. In data set [2], this compound came in with a KREL of 0.28 and a dissociation constant (Kd) of 2640 nM.

Take H2N-(D)Thr-(D)Lys-(L)Asn-OH [ID #7]: in data set [1], the Color entry is reported as “Pink” and the Frequency is 1. In data set [2], this compound registered a KREL of 1.29 and a dissociation constant (Kd) of 564 ± 80 nM.

For H2N-(L)Arg-(D)Lys-(L)Val-OH [ID #5], in data set [1], the Color entry is recorded as “Pink” and the Frequency amounted to 1. In data set [2], this compound displayed a KREL of 0.07 and a dissociation constant (Kd) of 10400 nM.

For H2N-(L)Arg-(D)Lys-(L)Arg-OH [ID #6], in data set [1], the Color result is recorded as “Pink” and the Frequency stood at 1. In data set [2], this compound gave a KREL of 0.83 and a dissociation constant Kd of 878 ± 80 nM.

As to “GRKKRRQRRR [Tat peptide, reference compound]”, in data set [2], the dissociation constant Kd is 698 nM.

In the case of H2N-(L)Lys-(L)Lys-(L)Asn-OH [ID #3], in data set [1], the Color result is “Pink” and the Frequency stood at 2. Further, in data set [2], the KREL came to 0.23, the “dissociation constant relative to tripeptide ID#1 (times higher)” value was “approximately 7 times” and the Kd is 3220 nM.
